target: T1, Purified ERAP1(37-941)-10His (ERAP1) (Homo sapiens, UniProt Q9NZ08); assay: ERAP1 mediated hydrolysis of an amide substrate measured in a biochemical system (10-mer decapeptide substrate); conditions: 10-mer substrate, 23° C. for 1 h, excitation 279 nm and emission 355 nm; read-out: IC50 vs Decapeptide WRVYEKC(Dnp)ALK-acid (where Dnp is Dinitrophenyl maleimide) (10-mer)
T1 construct: Purified ERAP1(37-941)-10His (ERAP1); 10His (C)
How it was run: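 ERAP1(37-941)-10His preincubated with compound in 25 mM Bis-tris propane, 0.05% HPMC, pH 7.75, then reacted 1 h at 23 °C with 10-mer WRVYEKC(Dnp)ALK (100 μM solution added in equal volume). Fluorescence read at ex 279/em 355 nm; IC50 from 4-parameter fit.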

T1 sequence (Q9NZ08 37-941): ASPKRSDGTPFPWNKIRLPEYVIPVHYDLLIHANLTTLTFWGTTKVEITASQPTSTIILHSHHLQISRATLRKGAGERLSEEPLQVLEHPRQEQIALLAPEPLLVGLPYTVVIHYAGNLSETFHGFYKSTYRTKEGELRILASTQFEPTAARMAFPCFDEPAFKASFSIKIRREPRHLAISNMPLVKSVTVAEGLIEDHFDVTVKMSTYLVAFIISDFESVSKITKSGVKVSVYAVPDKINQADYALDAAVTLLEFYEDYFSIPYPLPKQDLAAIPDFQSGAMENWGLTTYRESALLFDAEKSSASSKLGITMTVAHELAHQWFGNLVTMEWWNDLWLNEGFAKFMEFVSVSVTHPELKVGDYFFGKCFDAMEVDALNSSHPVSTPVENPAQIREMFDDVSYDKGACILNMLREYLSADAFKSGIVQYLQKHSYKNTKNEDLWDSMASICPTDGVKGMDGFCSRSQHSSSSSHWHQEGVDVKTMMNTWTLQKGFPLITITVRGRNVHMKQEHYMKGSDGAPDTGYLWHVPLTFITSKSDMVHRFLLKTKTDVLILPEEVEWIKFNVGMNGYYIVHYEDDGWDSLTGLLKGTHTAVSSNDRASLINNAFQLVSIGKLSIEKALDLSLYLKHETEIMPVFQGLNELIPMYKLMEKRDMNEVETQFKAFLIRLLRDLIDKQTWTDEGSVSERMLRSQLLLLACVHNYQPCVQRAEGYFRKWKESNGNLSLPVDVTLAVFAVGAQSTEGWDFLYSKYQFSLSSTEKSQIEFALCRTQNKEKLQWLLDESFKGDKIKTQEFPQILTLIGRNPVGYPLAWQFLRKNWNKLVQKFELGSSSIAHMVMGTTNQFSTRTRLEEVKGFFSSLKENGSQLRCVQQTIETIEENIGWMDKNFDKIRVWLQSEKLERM

IC50, < 500 nM:
N#Cc1ccc(-c2ccccn2)c(NS(=O)(=O)c2cc(C(=O)O)ccc2C2CC2)c1 [Example 83, 3-(N-(5-cyano-2-(pyridin-2-yl)phenyl)sulfamoyl)-4-cyclopropylbenzoic acid]
CCc1ccc(C(=O)O)cc1S(=O)(=O)Nc1cc(S(C)(=O)=O)ccc1-c1ccc(C)s1 [Example 84, 4-ethyl-3-(N-(5-(methylsulfonyl)-2-(5-methylthiophen-2-yl)phenyl)sulfamoyl) benzoic acid]
COc1ccc(C(=O)O)cc1S(=O)(=O)Nc1cc(S(C)(=O)=O)ccc1-c1ccc(C)s1 [Example 85, 4-methoxy-3-(N-(5-(methylsulfonyl)-2-(5-methylthiophen-2-yl)phenyl)sulfamoyl)benzoic acid]
Cc1ccc(-c2ccc(C(F)(F)F)cc2NS(=O)(=O)c2cc(C(=O)O)ccc2C2CC2)s1 [Example 86, 4-cyclopropyl-3-(N-(2-(5-methylthiophen-2-yl)-5-(trifluoromethyl)phenyl)sulfamoyl)benzoic acid]
COc1ccc(C(=O)O)cc1S(=O)(=O)Nc1cc(C(F)(F)F)ccc1-c1ccc(Cl)s1 [Example 87, 3-(N-(2-(5-chlorothiophen-2-yl)-5-(trifluoromethyl)phenyl)sulfamoyl)-4-methoxybenzoic acid]
COc1ccc(C(=O)O)cc1S(=O)(=O)Nc1cc(S(C)(=O)=O)ccc1-c1ccc(Cl)s1 [Example 88, 3-(N-(2-(5-chlorothiophen-2-yl)-5-(methylsulfonyl)phenyl)sulfamoyl)-4-methoxybenzoic acid]
CCc1ccc(C(=O)O)cc1S(=O)(=O)Nc1cc(S(C)(=O)=O)ccc1-c1ccc(Cl)s1 [Example 89, 3-(N-(2-(5-chlorothiophen-2-yl)-5-(methylsulfonyl)phenyl)sulfamoyl)-4-ethylbenzoic acid]
COc1ccc(C(=O)O)cc1S(=O)(=O)Nc1cc(C#N)ccc1-c1ccc(Cl)s1 [Example 90, 3-(N-(2-(5-chlorothiophen-2-yl)-5-cyanophenyl)sulfamoyl)-4-methoxybenzoic acid]
CCc1ccc(C(=O)O)cc1S(=O)(=O)Nc1cc(C#N)ccc1-c1ccc(Cl)s1 [Example 91, 3-(N-(2-(5-chlorothiophen-2-yl)-5-cyanophenyl)sulfamoyl)-4-ethylbenzoic acid]
O=C(O)c1ccc(C2CC2)c(S(=O)(=O)Nc2cc(C(F)(F)F)ccc2-c2cccc(F)c2)c1 [Example 92, 4-cyclopropyl-3-(N-(3′-fluoro-4-(trifluoromethyl)-[1,1′-biphenyl]-2-yl)sulfamoyl)benzoic acid]
CS(=O)(=O)c1ccc(-c2cccc(F)c2)c(NS(=O)(=O)c2cc(C(=O)O)ccc2C2CC2)c1 [Example 93, 4-cyclopropyl-3-(N-(3′-fluoro-4-(methylsulfonyl)-[1,1′-biphenyl]-2-yl)sulfamoyl)benzoic acid]
N#Cc1ccc(-c2cccc(F)c2)c(NS(=O)(=O)c2cc(C(=O)O)ccc2C2CC2)c1 [Example 94, 3-(N-(4-cyano-3′-fluoro-[1,1-biphenyl]-2-yl)sulfamoyl)-4-cyclopropylbenzoic acid]
Cc1ccc(-c2ccc(C#N)cc2NS(=O)(=O)c2cc(C(=O)O)ccc2C2CC2)s1 [Example 95, 3-(N-(5-cyano-2-(5-methylthiophen-2-yl)phenyl)sulfamoyl)-4-cyclopropylbenzoic acid]
N#Cc1ccc(-c2ccccc2)c(NS(=O)(=O)c2cc(C(=O)O)ccc2C2CC2)c1 [Example 96, 3-(N-(4-cyano-[1,1′-biphenyl]-2-yl)sulfamoyl)-4-cyclopropylbenzoic acid]
N#Cc1ccc(-c2cccnc2)c(NS(=O)(=O)c2cc(C(=O)O)ccc2C2CC2)c1 [Example 97, 3-(N-(5-cyano-2-(pyridin-3-yl)phenyl)sulfamoyl)-4-cyclopropylbenzoic acid]
O=C(O)c1ccc(C2CC2)c(S(=O)(=O)Nc2cc(C(F)(F)F)ccc2-c2cccnc2)c1 [Example 98, 4-cyclopropyl-3-(N-(2-(pyridin-3-yl)-5-(trifluoromethyl)phenyl)sulfamoyl)benzoic acid]
O=C(O)c1ccc(C2CC2)c(S(=O)(=O)Nc2cc(C(F)(F)F)ccc2-n2cccc2)c1 [Example 99, 3-(N-(2-pyrrol-1-yl-5-(trifluoromethyl)phenyl)sulfamoyl)-4-cyclopropylbenzoic acid]
COc1ccc(C(=O)O)cc1S(=O)(=O)Nc1cc(C#N)ccc1-c1ccc(F)s1 [Example 100, 3-(N-(5-cyano-2-(5-fluorothiophen-2-yl)phenyl)sulfamoyl)-4-methoxybenzoic acid]
CCc1ccc(C(=O)O)cc1S(=O)(=O)Nc1cc(C#N)ccc1-c1ccc(F)s1 [Example 101, 3-(N-(5-cyano-2-(5-fluorothiophen-2-yl)phenyl)sulfamoyl)-4-ethylbenzoic acid]
N#Cc1ccc(-c2ccc(F)s2)c(NS(=O)(=O)c2cc(C(=O)O)ccc2C2CC2)c1 [Example 102, 3-(N-(5-cyano-2-(5-fluorothiophen-2-yl)phenyl)sulfamoyl)-4-cyclopropylbenzoic acid]
Cc1ccc(-c2ccc(S(C)(=O)=O)cc2NS(=O)(=O)c2cc(C(=O)O)ccc2C2CC2)s1 [Example 103, 4-cyclopropyl-3-(N-(5-(methylsulfonyl)-2-(5-methylthiophen-2-yl)phenyl)sulfamoyl)benzoic acid]
CCc1ccc(C(=O)O)cc1S(=O)(=O)Nc1cc(C(N)=O)ccc1-c1ccccn1 [Example 104, 3-(N-(5-carbamoyl-2-(pyridin-2-yl)phenyl)sulfamoyl)-4-ethylbenzoic acid]
COc1ccc(C(=O)O)cc1S(=O)(=O)Nc1cc(S(C)(=O)=O)ccc1-c1ccc(F)s1 [Example 105, 3-(N-(2-(5-fluorothiophen-2-yl)-5-(methylsulfonyl)phenyl)sulfamoyl)-4-methoxybenzoic acid]
CCc1ccc(C(=O)O)cc1S(=O)(=O)Nc1cc(S(C)(=O)=O)ccc1-c1ccc(F)s1 [Example 106, 4-ethyl-3-(N-(2-(5-fluorothiophen-2-yl)-5-(methylsulfonyl)phenyl)sulfamoyl)benzoic acid]
CCc1ccc(C(=O)O)cc1S(=O)(=O)Nc1cc(C#N)ccc1-n1cccc1 [Example 107, 3-(N-(5-cyano-2-(pyrrol-1-yl)phenyl)sulfamoyl)-4-ethylbenzoic acid]
CCc1ccc(C(=O)O)cc1S(=O)(=O)Nc1cc(S(C)(=O)=O)ccc1-n1cccc1 [Example 108, 4-ethyl-3-(N-(5-(methylsulfonyl)-2-(pyrrol-1-yl)phenyl)sulfamoyl)benzoic acid]
N#Cc1ccc(-n2cccc2)c(NS(=O)(=O)c2cc(C(=O)O)ccc2C2CC2)c1 [Example 109, 3-(N-(5-cyano-2-(pyrrol-1-yl)phenyl)sulfamoyl)-4-cyclopropylbenzoic acid]
CS(=O)(=O)c1ccc(-n2cccc2)c(NS(=O)(=O)c2cc(C(=O)O)ccc2C2CC2)c1 [Example 110, 4-cyclopropyl-3-(N-(5-(methylsulfonyl)-2-(pyrrol-1-yl)phenyl)sulfamoyl) benzoic acid]
N#Cc1ccc(-c2ccc(Cl)s2)c(NS(=O)(=O)c2cc(C(=O)O)ccc2C2CC2)c1 [Example 111, 3-(N-(2-(5-chlorothiophen-2-yl)-5-cyanophenyl)sulfamoyl)-4-cyclopropylbenzoic acid]
COc1ccc(C(=O)O)cc1S(=O)(=O)Nc1cc(C#N)c(F)cc1-c1cccc(F)c1 [Example 112, 3-(N-(4-cyano-3′,5-difluoro-[1,1′-biphenyl]-2-yl)sulfamoyl)-4-methoxybenzoic acid]
O=C(O)c1ccc(C2CC2)c(S(=O)(=O)Nc2cc(C(F)(F)F)ccc2-c2ccc(Cl)s2)c1 [Example 113, 3-(N-(2-(5-chlorothiophen-2-yl)-5-(trifluoromethyl)phenyl)sulfamoyl)-4-cyclopropylbenzoic acid]
O=C(O)c1ccc(C2CC2)c(S(=O)(=O)Nc2cc(C(F)(F)F)ccc2-c2ccc(C3CC3)s2)c1 [Example 114, 4-cyclopropyl-3-(N-(2-(5-cyclopropylthiophen-2-yl)-5-(trifluoromethyl)phenyl)sulfamoyl)benzoic acid]
CS(=O)(=O)c1ccc(-c2ccc(C3CC3)s2)c(NS(=O)(=O)c2cc(C(=O)O)ccc2C2CC2)c1 [Example 115, 4-cyclopropyl-3-(N-(2-(5-cyclopropylthiophen-2-yl)-5-(methylsulfonyl)phenyl)sulfamoyl)benzoic acid]
CS(=O)(=O)c1ccc(-c2ccc(F)s2)c(NS(=O)(=O)c2cc(C(=O)O)ccc2C2CC2)c1 [Example 116, 4-cyclopropyl-3-(N-(2-(5-fluorothiophen-2-yl)-5-(methylsulfonyl)-phenyl)sulfamoyl)benzoic acid]
COc1ccc(C(=O)O)cc1S(=O)(=O)Nc1cc(C(F)(F)F)ccc1-c1ccc(F)s1 [Example 117, 3-(N-(2-(5-fluorothiophen-2-yl)-5-(trifluoromethyl)phenyl)sulfamoyl)-4-methoxybenzoic acid]
CCc1ccc(C(=O)O)cc1S(=O)(=O)Nc1cc(C#N)ccc1-c1ccc(C#N)s1 [Example 118, 3-(N-(5-cyano-2-(5-cyanothiophen-2-yl)phenyl)sulfamoyl)-4-ethylbenzoic acid]
COc1ccc(C(=O)O)cc1S(=O)(=O)Nc1cc(C#N)ccc1-c1ccc(C#N)s1 [Example 119, 3-(N-(5-cyano-2-(5-cyanothiophen-2-yl)phenyl)sulfamoyl)-4-methoxybenzoic acid]
